Measured values reported in patent publication US8080371B2, “Markers for addiction” (The Washington University, priority 2006, dated 2011).

What was measured:
[1] = target: T1, α4β2α5D398 nAChR heterologously expressed in HEK293T cells (Mus musculus, UniProt O70174+Q9ERK7); assay: Aequorin-based luminescence assay of agonist-evoked changes in intracellular calcium; format: cell-based
T1 construct: expressed in transfected cells; host or cells: HEK293T
Description: (§1) HEK293T cells were maintained at 37° C. in a humidified, 5% CO2 environment in Dulbecco's modified Eagle's medium (high glucose, no pyruvate) (DMEM), 10% heat-inactivated fetal bovine serum and antibiotic/antimycotic (100 U/mL penicillin, 100 μg/mL streptomycin and 0.25 μg/mL amphotericin B). Culture reagents were purchased from either Biowhittaker (East Rutherford, N.J., USA) or Invitrogen (Carlsbad, Calif., USA).
Agonist-evoked changes in intracellular calcium was performed using an aequorin-based luminescence assay as previously described (Karadsheh et al., 2004). […]
For the epibatidine concentration-response curves, 50 μL of cells were added to each well of a 96-well opaque white plate and placed in a Victor3V plate reader (Perkin Elmer). Following a 1 second baseline read, 50 μl epibatidine was injected onto each sample and luminescence was recorded at 0.2 s intervals for 20 s immediately following the addition of agonist. At the completion of the agonist stimulation, 100 μL of a solution containing 0.1% Triton X-100 and 100 mM CaCl2 was injected into each well and luminescence was recorded for 5 s at 0.1 s intervals. […]

[2] = target: T2, α4β2α5N398 nAChR heterologously expressed in HEK293T cells (Mus musculus, UniProt O70174+Q2MKA5+Q9ERK7, D397N); assay: cell-based
T2 construct: expressed in transfected cells; host or cells: HEK293T
Description: as §1
(§2) Agonist-evoked changes in intracellular calcium was performed using an aequorin-based luminescence assay as previously described (Karadsheh et al., 2004). HEK293T cells were seeded onto six-well plates (1.5×10^6 cells/well) and were transfected the following day with plasmids (0.25 μg/well for each plasmid) containing a human codon-optimized aequorin cDNA (Vernon and Printen 2002), the mouse α4 and β2 cDNAs and either the wild-type mouse α5 cDNA (D398) or a mouse α5 cDNA in which D398 was mutated to N398. Transfection was performed using either the LipofectAmine Plus Reagent (Invitrogen) or Fugene HD transfection reagent (Roche, Indianapolis, Ind.) as recommended by the manufacturers. […]
(§3) For the epibatidine concentration-response curves, 50 μL of cells were added to each well of a 96-well opaque white plate and placed in a Victor3V plate reader (Perkin Elmer). Following a 1 second baseline read, 50 μl epibatidine was injected onto each sample and luminescence was recorded at 0.2 s intervals for 20 s immediately following the addition of agonist. At the completion of the agonist stimulation, 100 μL of a solution containing 0.1% Triton X-100 and 100 mM CaCl2 was injected into each well and luminescence was recorded for 5 s at 0.1 s intervals. In order to control for differences in cell number per well as well as variation in transfection efficiency and coelenterazine loading, agonist responses were normalized by dividing the maximal peak value for the agonist-stimulated luminescence (L) by the total peak luminescence value (Lmax) (maximal peak agonist-stimulated luminescence+maximal peak luminescence resulting from cell lysis in the presence of high calcium).

[3] = system: α4β2α5N398 nAChR heterologously expressed in HEK293T cells; assay: cell-based; set-up: species or system mouse; settings: p<0.0005
Description: as §1, §2, §3

[4] = cigarette smoking, background statement; cited from earlier work

T1 sequence (Q2MKA5 30-467): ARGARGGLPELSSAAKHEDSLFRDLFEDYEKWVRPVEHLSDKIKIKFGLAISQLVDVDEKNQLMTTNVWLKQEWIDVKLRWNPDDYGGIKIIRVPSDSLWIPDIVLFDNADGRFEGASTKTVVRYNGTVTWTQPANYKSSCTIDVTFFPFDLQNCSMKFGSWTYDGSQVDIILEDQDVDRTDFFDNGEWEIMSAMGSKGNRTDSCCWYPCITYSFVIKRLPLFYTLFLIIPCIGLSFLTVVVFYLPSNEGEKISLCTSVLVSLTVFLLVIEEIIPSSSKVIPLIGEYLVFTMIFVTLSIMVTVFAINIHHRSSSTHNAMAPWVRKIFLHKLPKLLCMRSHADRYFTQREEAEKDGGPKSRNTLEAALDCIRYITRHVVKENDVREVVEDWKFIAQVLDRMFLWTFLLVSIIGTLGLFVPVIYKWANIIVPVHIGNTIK
T1 sequence (Q9ERK7 26-501): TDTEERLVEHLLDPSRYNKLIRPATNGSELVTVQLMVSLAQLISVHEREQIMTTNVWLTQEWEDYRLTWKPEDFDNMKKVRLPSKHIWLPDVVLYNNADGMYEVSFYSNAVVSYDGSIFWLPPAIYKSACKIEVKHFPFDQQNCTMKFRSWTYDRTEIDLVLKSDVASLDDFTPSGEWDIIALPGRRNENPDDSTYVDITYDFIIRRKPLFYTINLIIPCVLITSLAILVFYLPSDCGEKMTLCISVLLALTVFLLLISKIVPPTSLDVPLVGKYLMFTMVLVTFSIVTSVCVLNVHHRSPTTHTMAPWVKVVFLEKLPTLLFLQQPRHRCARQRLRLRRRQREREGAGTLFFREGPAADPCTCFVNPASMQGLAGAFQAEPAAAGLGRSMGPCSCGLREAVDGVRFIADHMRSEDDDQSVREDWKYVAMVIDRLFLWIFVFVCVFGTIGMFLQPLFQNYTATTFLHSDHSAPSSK
T1 sequence (O70174 31-629): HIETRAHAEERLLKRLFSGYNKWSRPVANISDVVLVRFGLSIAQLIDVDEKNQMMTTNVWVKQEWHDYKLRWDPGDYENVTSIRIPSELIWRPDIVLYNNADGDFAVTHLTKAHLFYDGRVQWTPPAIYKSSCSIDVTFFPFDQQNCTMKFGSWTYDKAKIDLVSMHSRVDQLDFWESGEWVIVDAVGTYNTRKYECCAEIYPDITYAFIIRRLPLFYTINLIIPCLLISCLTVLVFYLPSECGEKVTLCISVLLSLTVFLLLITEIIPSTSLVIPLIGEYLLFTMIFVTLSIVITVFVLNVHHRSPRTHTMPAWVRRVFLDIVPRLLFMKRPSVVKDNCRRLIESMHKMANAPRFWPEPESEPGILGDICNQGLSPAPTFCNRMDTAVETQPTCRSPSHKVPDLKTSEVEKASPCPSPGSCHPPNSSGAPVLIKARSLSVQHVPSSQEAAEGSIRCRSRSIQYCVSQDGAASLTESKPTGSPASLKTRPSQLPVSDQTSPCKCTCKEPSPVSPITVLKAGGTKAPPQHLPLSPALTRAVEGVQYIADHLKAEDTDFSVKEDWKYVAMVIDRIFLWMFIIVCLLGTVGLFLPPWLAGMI
T2 sequence (Q2MKA5 30-467 D397N): as the sequence (Q2MKA5 30-467) above, with D368N counted along it
T2 sequence (O70174 31-629): as the sequence (O70174 31-629) above
T2 sequence (Q9ERK7 26-501): as the sequence (Q9ERK7 26-501) above

Compound | EC50 [1] | maximal response to agonist per receptor ([1]; L/Lmax divided by fmol of nAChR per sample well, α4β2α5D398, mean ± SEM, N=12) | EC50 [2] | maximal response to agonist per receptor ([2]; L/Lmax divided by fmol of nAChR per sample well, α4β2α5N398, mean ± SEM, N=12) | maximal response to agonist per receptor, α4β2α5N398 relative to α4β2α5D398 [3] | time to peak drug level in brain after inhalation [4]
Clc1ccc(C2CC3CCC2N3)cn1 (stereo not drawn) [epibatidine] | 0.0259 ± 0.0015 nM | 0.147±0.01 | 0.0191 ± 0.0014 nM | 0.356±0.022 | over two-fold higher | –
CN1CCCC1c1cccnc1 (stereo not drawn) [nicotine] | – | – | – | – | – | ≤ 10 s
